Measured values published in patent US6737383B1, “Herbicidal oxadiazolidines” (priority 1999, dated 2004).

Assays:
smallflower flatsedge = experiment: Test B flood test smallflower flatsedge; assay type: in vivo, Cyperus difformis
Outline: (§1)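 Read-out is a visual response score from 0 (no effect) to 10 (complete control), assigned by comparison with untreated controls. Treatment was applied at the 2-leaf stage, and plants stayed in the greenhouse for twelve to sixteen days before scoring.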

wheat = experiment: Test B pre/postemergence wheat; assay type: in vivo, Triticum aestivum
Outline: (§2)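 Herbicidal effect was estimated by eye on a ten-point control scale after plants spent twelve to sixteen days in a greenhouse following soil or foliar treatment. Foliar sprays targeted plants at one to four leaves; all doses were formulated in a non-phytotoxic solvent with surfactant.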

soybean = experiment: Test B pre/postemergence soybean; assay type: in vivo, Glycine max
Outline: as §2

sugar beet = experiment: Test B pre/postemergence sugar beet; assay type: in vivo, Beta vulgaris
Outline: as §2

crabgrass = experiment: Test B pre/postemergence crabgrass; assay type: in vivo, Digitaria sanguinalis
Outline: as §2

surinam grass = experiment: Test B pre/postemergence surinam grass; assay type: in vivo, Brachiaria decumbens
Outline: as §2

rape = experiment: Test B pre/postemergence rape; assay type: in vivo, Brassica napus
Outline: as §2

blackgrass = experiment: Test B pre/postemergence blackgrass; assay type: in vivo, Alopecurus myosuroides
Outline: as §2

wild oat = experiment: Test B pre/postemergence wild oat; assay type: in vivo, Avena fatua
Outline: as §2

corn = experiment: Test B pre/postemergence corn; assay type: in vivo, Zea mays
Outline: as §2

purple nutsedge = experiment: Test B pre/postemergence purple nutsedge; assay type: in vivo, Cyperus rotundus
Outline: as §2

cocklebur = experiment: Test B pre/postemergence cocklebur; assay type: in vivo, Xanthium strumarium
Outline: as §2

bamyardgrass = experiment: Test B flood test barnyardgrass; assay type: in vivo, Echinochloa crus-galli
Outline: as §1

velvetleaf = experiment: Test B pre/postemergence velvetleaf; assay type: in vivo, Abutilon theophrasti
Outline: as §2

bedstraw = experiment: Test B pre/postemergence bedstraw; assay type: in vivo, Galium aparine
Outline: as §2

pigweed = experiment: Test B pre/postemergence pigweed; assay type: in vivo, Amaranthus retroflexus
Outline: as §2

[1] = Rate 62 g/ha, headed Pre-emergence (flood test species), scale 0 to 10 (0 no effect, 10 complete control)
[2] = Rate 125 g/ha, Pre-emergence, flood test species, scale 0 to 10 where 0 is no effect and 10 is complete control
[3] = Rate 250 g/ha, Pre-emergence, flood-test species, scale 0 to 10, 0 is no effect, 10 is complete control
[4] = Rate 500 g/ha, Pre-emergence, flood test species, scale 0 to 10 (0 no effect, 10 complete control)
[5] = Postemergence, Rate 125 g/ha, scale 0 to 10, 0 is no effect, 10 is complete control
[6] = Preemergence, Rate 62 g/ha, scale of 0 to 10 where 0 is no effect and 10 is complete control
[7] = Preemergence, Rate 250 g/ha, scale of 0 to 10 where 0 is no effect and 10 is complete control
[8] = Preemergence, Rate 500 g/ha, scale of 0 to 10 where 0 is no effect and 10 is complete control
[9] = Rate 62 g/ha, Postemergence, scale 0 to 10 (0 no effect, 10 complete control)
[10] = Rate 500 g/ha, Postemergence, scale 0 to 10, 0 no effect, 10 complete control
[11] = Rate 250 g/ha, Postemergence, scale of 0 to 10 where 0 is no effect and 10 is complete control

For `Cc1c(-n2c(=O)on(C(=O)N(c3ccc(F)cc3)C(C)C)c2=O)ccc2ccccc12` [Compound 338], the “S. Flatsedge plant response rating” value (smallflower flatsedge; [1]) was 0, the “S. Flatsedge plant response rating” value (smallflower flatsedge; [2]) was 0 and the “S. Flatsedge plant response rating” value (smallflower flatsedge; [3]) was 0. For the same compound, the “S. Flatsedge plant response rating” value (smallflower flatsedge; [4]) was 0, the “Plant response rating, Wheat” value (wheat; [5]) was 0 and the “Wheat plant response rating” value (wheat; [6]) was 0. The “Wheat plant response rating (0 to 10 scale)” value (wheat; Preemergence, Rate 125 g/ha) was 0, the “Wheat plant response rating” value (wheat; [7]) was 0 and the “Wheat plant response rating” value (wheat; [8]) was 0. For the same compound, the “Wheat plant response rating” value (wheat; [9]) was 0, the “Plant response rating, Wheat” value (wheat; [10]) was 0 and the “Plant response rating, Soybean” value (soybean; [5]) was 1. The “Soybean plant response rating” value (soybean; [6]) was 0, the “Soybean plant response rating (0 to 10 scale)” value (soybean; Preemergence, Rate 125 g/ha) was 0 and the “Soybean plant response rating” value (soybean; [7]) was 0. The “Soybean plant response rating” value (soybean; [8]) was 0, the “Soybean plant response rating” value (soybean; [9]) was 1 and the “Plant response rating, Soybean” value (soybean; [10]) was 2. For the same compound, the “Plant response rating, Sugarbeets” value (sugar beet; [5]) was 0, the “Sugarbeets plant response rating” value (sugar beet; [6]) was 0 and the “Sugarbeets plant response rating (0 to 10 scale)” value (sugar beet; Preemergence, Rate 125 g/ha) was 0. For the same compound, the “Sugarbeets plant response rating” value (sugar beet; [7]) was 0, the “Sugarbeets plant response rating” value (sugar beet; [8]) was 0 and the “Sugarbeets plant response rating” value (sugar beet; [9]) was 0. For the same compound, the “Plant response rating, Sugarbeets” value (sugar beet; [10]) was 0, the “Plant response rating, Crabgrass” value (crabgrass; [5]) was 0 and the “Crabgrass plant response rating” value (crabgrass; [6]) was 0. The “Crabgrass plant response rating (0 to 10 scale)” value (crabgrass; Preemergence, Rate 125 g/ha) was 0, the “Crabgrass plant response rating” value (crabgrass; [7]) was 0 and the “Crabgrass plant response rating” value (crabgrass; [8]) was 0. For the same compound, the “Crabgrass plant response rating” value (crabgrass; [9]) was 0, the “Plant response rating, Crabgrass” value (crabgrass; [10]) was 0 and the “Plant response rating, B. signalgrass” value (surinam grass; [5]) was 0. For the same compound, the “B. signalgrass plant response rating” value (surinam grass; [6]) was 0, the “B. signalgrass plant response rating (0 to 10 scale, 0 is no effect, 10 is complete control)” value (surinam grass; Preemergence, Rate 125 g/ha) was 0 and the “B. signalgrass plant response rating” value (surinam grass; [7]) was 0. The “B. signalgrass plant response rating” value (surinam grass; [8]) was 0, the “B. signalgrass plant response rating” value (surinam grass; [9]) was 0 and the “Plant response rating, B. signalgrass” value (surinam grass; [11]) was 0. The “Plant response rating, B. signalgrass” value (surinam grass; [10]) was 0, the “Plant response rating, Rape” value (rape; [5]) was 0 and the “Rape plant response rating” value (rape; [6]) was 0. The “Rape plant response rating (0 to 10 scale)” value (rape; Preemergence, Rate 125 g/ha) was 0, the “Rape plant response rating” value (rape; [7]) was 0 and the “Rape plant response rating” value (rape; [8]) was 0. For the same compound, the “Rape plant response rating” value (rape; [9]) was 0, the “Plant response rating, Rape” value (rape; [10]) was 0 and the “Plant response rating, Blackgrass” value (blackgrass; [5]) was 0. For the same compound, the “Blackgrass plant response rating” value (blackgrass; [6]) was 0, the “Blackgrass plant response rating (0 to 10 scale)” value (blackgrass; Preemergence, Rate 125 g/ha) was 0 and the “Blackgrass plant response rating” value (blackgrass; [7]) was 0. The “Blackgrass plant response rating” value (blackgrass; [8]) was 0, the “Blackgrass plant response rating” value (blackgrass; [9]) was 0 and the “Plant response rating, Blackgrass” value (blackgrass; [11]) was 0. For the same compound, the “Plant response rating, Blackgrass” value (blackgrass; [10]) was 0, the “Plant response rating, Wild oats” value (wild oat; [5]) was 0 and the “Wild oats plant response rating” value (wild oat; [6]) was 0. For the same compound, the “Wild oats plant response rating (0 to 10 scale)” value (wild oat; Preemergence, Rate 125 g/ha) was 0, the “Wild oats plant response rating” value (wild oat; [7]) was 0 and the “Wild oats plant response rating” value (wild oat; [8]) was 0. The “Wild oats plant response rating” value (wild oat; [9]) was 0, the “Plant response rating, Wild oats” value (wild oat; [10]) was 0 and the “Plant response rating, Corn” value (corn; [5]) was 0. For the same compound, the “Corn plant response rating” value (corn; [6]) was 0, the “Corn plant response rating (0 to 10 scale)” value (corn; Preemergence, Rate 125 g/ha) was 0 and the “Corn plant response rating” value (corn; [7]) was 0. For the same compound, the “Corn plant response rating” value (corn; [8]) was 0, the “Corn plant response rating” value (corn; [9]) was 0 and the “Plant response rating, Corn” value (corn; [10]) was 0. For the same compound, the “Plant response rating, Nutsedge” value (purple nutsedge; [5]) was 0, the “Nutsedge plant response rating” value (purple nutsedge; [6]) was 0 and the “Nutsedge plant response rating (0 to 10 scale)” value (purple nutsedge; Preemergence, Rate 125 g/ha) was 0. For the same compound, the “Nutsedge plant response rating” value (purple nutsedge; [7]) was 0, the “Nutsedge plant response rating” value (purple nutsedge; [8]) was 0 and the “Nutsedge plant response rating” value (purple nutsedge; [9]) was 0. The “Plant response rating, Nutsedge” value (purple nutsedge; [10]) was 0, the “Plant response rating, Cocklebur” value (cocklebur; [5]) was 0 and the “Cocklebur plant response rating” value (cocklebur; [6]) was 0. The “Cocklebur plant response rating (0 to 10 scale)” value (cocklebur; Preemergence, Rate 125 g/ha) was 0, the “Cocklebur plant response rating” value (cocklebur; [7]) was 0 and the “Cocklebur plant response rating” value (cocklebur; [8]) was 0. The “Cocklebur plant response rating” value (cocklebur; [9]) was 0, the “Plant response rating, Cocklebur” value (cocklebur; [10]) was 0 and the “Barnyardgrass plant response rating” value (bamyardgrass; [1]) was 0. For the same compound, the “Barnyardgrass plant response rating” value (bamyardgrass; [2]) was 0, the “Barnyardgrass plant response rating” value (bamyardgrass; [3]) was 0 and the “Barnyardgrass plant response rating” value (bamyardgrass; [4]) was 9. The “Plant response rating, Velvetleaf” value (velvetleaf; [5]) was 0, the “Velvetleaf plant response rating” value (velvetleaf; [6]) was 0 and the “Velvetleaf plant response rating (0 to 10 scale)” value (velvetleaf; Preemergence, Rate 125 g/ha) was 0. The “Velvetleaf plant response rating” value (velvetleaf; [7]) was 0, the “Velvetleaf plant response rating” value (velvetleaf; [8]) was 0 and the “Velvetleaf plant response rating” value (velvetleaf; [9]) was 0. For the same compound, the “Plant response rating, Velvetleaf” value (velvetleaf; [10]) was 0, the “Plant response rating, Bedstraw” value (bedstraw; [5]) was 2 and the “Bedstraw plant response rating” value (bedstraw; [6]) was 0. The “Bedstraw plant response rating (0 to 10 scale)” value (bedstraw; Preemergence, Rate 125 g/ha) was 0, the “Bedstraw plant response rating” value (bedstraw; [7]) was 0 and the “Bedstraw plant response rating” value (bedstraw; [8]) was 0. For the same compound, the “Bedstraw plant response rating” value (bedstraw; [9]) was 0, the “Plant response rating, Bedstraw” value (bedstraw; [11]) was 2 and the “Plant response rating, Bedstraw” value (bedstraw; [10]) was 5. For the same compound, the “Plant response rating, Redroot pigweed” value (pigweed; [5]) was 0, the “Redroot pigweed plant response rating” value (pigweed; [6]) was 0 and the “Redroot pigweed plant response rating (0 to 10 scale)” value (pigweed; Preemergence, Rate 125 g/ha) was 0. The “Redroot pigweed plant response rating” value (pigweed; [7]) was 0, the “Redroot pigweed plant response rating” value (pigweed; [8]) was 0 and the “Redroot pigweed plant response rating” value (pigweed; [9]) was 0. For the same compound, the “Plant response rating, Redroot pigweed” value (pigweed; [10]) was 0.
